Measurements as given in patent publication US20170204380A1, “GLYCOSYL TRANSFERASES AND THEIR USES” (TECHNISCHE UNIVERSITAT MUNCHEN, priority 2014, published 2017).
Numbering of substitutions follows the chain as printed. Like-named read-outs stand apart in the source and are kept apart here. One block for each molecule: values may come before it.

How the values were obtained:
VvGT14a [1] = biological target: T1, VvGT14a (Vitis vinifera, UniProt F6H0R6); details: for kcat/KM of VvGT14a higher than the value for UGT85B1 from Sorghum bicolor: VvGT14a versus UGT85B1; for Km / kcat: pH 8.5
T1 sequence (F6H0R6 entry or part of it): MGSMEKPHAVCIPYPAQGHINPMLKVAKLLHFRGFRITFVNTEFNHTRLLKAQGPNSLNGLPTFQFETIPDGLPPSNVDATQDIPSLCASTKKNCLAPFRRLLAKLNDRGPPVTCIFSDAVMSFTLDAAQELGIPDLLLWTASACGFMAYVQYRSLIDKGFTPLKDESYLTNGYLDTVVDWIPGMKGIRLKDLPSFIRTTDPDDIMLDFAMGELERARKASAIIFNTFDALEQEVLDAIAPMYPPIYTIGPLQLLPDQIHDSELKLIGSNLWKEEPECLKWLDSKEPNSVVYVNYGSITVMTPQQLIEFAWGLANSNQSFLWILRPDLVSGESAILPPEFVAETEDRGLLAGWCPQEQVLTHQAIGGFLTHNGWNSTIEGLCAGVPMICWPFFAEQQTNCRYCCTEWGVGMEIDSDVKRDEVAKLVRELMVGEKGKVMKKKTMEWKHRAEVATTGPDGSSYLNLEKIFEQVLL

VvGT16 [2] = biological target: T2, VvGT16 (Vitis vinifera, UniProt F6HTJ4); details: UDP-glucose fixed 512.5 μM (for UDP-glucose: geraniol fixed 1.25 mM), Tris-HCl pH 8.5, 30° C.
T2 sequence (F6HTJ4 entry or part of it): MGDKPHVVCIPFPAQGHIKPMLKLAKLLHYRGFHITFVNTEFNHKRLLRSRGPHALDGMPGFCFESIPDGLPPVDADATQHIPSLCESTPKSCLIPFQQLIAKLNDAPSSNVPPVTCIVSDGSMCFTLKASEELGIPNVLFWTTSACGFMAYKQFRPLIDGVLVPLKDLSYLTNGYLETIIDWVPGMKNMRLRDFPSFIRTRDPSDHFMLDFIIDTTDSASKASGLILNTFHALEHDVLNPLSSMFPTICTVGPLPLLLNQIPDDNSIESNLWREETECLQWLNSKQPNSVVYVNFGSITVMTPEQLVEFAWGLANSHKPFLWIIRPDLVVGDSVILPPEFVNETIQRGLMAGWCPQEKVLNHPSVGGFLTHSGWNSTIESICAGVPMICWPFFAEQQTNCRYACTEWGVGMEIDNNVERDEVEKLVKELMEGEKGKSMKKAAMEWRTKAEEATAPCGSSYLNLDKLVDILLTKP
Experimental: (§1) The measurements were performed under the following conditions. […] Radioactivity was determined by LSC.

VvGT16 [3] = biological target: T2, VvGT16; test: Substrate screening, radiochemical analysis with UDP-[14C]glucose; format: biochemical
Experimental: (§2) In the initial screening, each reaction mixture (200 μL in total) contained Tris-HCl buffer (100 mM, pH 8, 10 mM 2-mercaptoethanol), 37 pmol UDP-[^14C]glucose (0.01 μCi, Biotrend, Köln, Germany), substrate (50 μL of a 1 mg/mL stock solution) and purified protein (0.5-0.8 μg/μL). […] The organic phase was mixed with 2 mL Pro Flow P+ cocktail (Meridian Biotechnologies Ltd., Epsom, UK) and radioactivity was determined by liquid scintillation counting (LSC, Tri-Carb 2800TR, Perkin Elmer, Waltham Mass., USA). Additionally, negative controls without substrate were performed.
(§3) The recombinant proteins were expressed with an N-terminal GST-tag, affinity purified and verified by SDS-PAGE and Western Blot using GST-specific antibody.

VvGT15a [4] = biological target: T3, VvGT15a (Vitis vinifera, UniProt A0ABY9C1E0); test: as above; format: biochemical
Experimental: as §2, §3

VvGT15c [5] = biological target: T4, VvGT15c (Vitis vinifera, UniProt A0ABY9C1E0); test: as above; format: biochemical
T4 sequence (A0ABY9C1E0 entry or part of it): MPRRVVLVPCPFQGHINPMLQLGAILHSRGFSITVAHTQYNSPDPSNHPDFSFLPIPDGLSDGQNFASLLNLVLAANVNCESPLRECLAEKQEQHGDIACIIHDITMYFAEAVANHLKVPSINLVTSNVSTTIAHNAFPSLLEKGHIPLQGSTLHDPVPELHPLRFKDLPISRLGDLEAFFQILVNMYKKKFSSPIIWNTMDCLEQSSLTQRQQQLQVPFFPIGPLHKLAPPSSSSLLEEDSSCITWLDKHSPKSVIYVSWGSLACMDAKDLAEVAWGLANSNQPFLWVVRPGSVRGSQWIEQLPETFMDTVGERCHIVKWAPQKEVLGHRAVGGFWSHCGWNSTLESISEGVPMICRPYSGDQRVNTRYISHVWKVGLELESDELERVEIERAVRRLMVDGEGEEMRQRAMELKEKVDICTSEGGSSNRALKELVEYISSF
Experimental: as §2, §3

VvGT15b [6] = biological target: T5, VvGT15b (Vitis vinifera, UniProt A0ABY9C1E0); test: as above; format: biochemical
T5 sequence (A0ABY9C1E0 entry or part of it): as above
Experimental: as §2, §3

CaUGT2 = details: CaUGT2, natural substrate; cited from earlier work
VvGT14a [7] = biological target: T1, VvGT14a; test: Substrate screening, radiochemical analysis with UDP-[14C]glucose; format: biochemical
Experimental: as §2, §3

VvGT1 = biological target: T6, VvGT1 (Vitis vinifera, UniProt P51094); details: VvGT1, natural substrate; cited from earlier work
T6 sequence (P51094 1-456): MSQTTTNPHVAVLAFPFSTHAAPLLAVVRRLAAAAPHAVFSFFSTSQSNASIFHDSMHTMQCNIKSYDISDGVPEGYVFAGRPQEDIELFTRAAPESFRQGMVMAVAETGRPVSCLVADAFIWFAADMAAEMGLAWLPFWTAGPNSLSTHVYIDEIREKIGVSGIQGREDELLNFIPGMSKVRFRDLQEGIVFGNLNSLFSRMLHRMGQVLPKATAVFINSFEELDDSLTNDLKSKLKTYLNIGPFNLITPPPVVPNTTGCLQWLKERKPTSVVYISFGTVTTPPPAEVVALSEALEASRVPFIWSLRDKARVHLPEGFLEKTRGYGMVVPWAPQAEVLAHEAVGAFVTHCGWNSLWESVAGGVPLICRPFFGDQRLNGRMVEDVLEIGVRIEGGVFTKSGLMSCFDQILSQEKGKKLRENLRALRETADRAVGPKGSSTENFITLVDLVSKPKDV

VvGT6 = details: cited from earlier work
VvGT5 = details: cited from earlier work
UGT71G1 = details: cited from earlier work
VvGT15a [8] = biological target: T3, VvGT15a; format: biochemical; details: UDP-glucose fixed 833 μM (for UDP-glucose: geraniol fixed 1.25 mM), Tris-HCl pH 7.5, 30° C.
Experimental: as §1

VvGT15c [9] = biological target: T4, VvGT15c; format: biochemical; details: UDP-glucose fixed 833 μM (for UDP-glucose: geraniol fixed 1.25 mM), Tris-HCl pH 7.5, 30° C.
Experimental: as §1

VvGT15b [10] = biological target: T5, VvGT15b; format: biochemical; details: UDP-glucose fixed 833 μM (for UDP-glucose: geraniol fixed 1.25 mM), Tris-HCl pH 7.5, 30° C.
Experimental: as §1

[11] = substrate: CC(C)=CCC[C@H](C)CCO; test: purified protein, by the assay type; details: UDP-glucose fixed 833 μM (for UDP-glucose: geraniol fixed 1.25 mM), Tris-HCl pH 7.5, 30° C.
[12] = substrate: CC(C)=CCC/C(C)=C\CO; test: purified protein, by the assay type; format: biochemical, Vitis vinifera; details: UDP-glucose fixed 833 μM (for UDP-glucose: geraniol fixed 1.25 mM), Tris-HCl pH 7.5, 30° C.

kcat/KM of VvGT14a higher than the value for UGT85B1 from Sorghum bicolor (VvGT14a [1]): 40 fold
Km (VvGT14a [1]): 10 µM
kcat (VvGT14a [1]): 0.02 s⁻¹
kcat (VvGT16 [2]): 0.009 s⁻¹
conversion as substrate (in words) (VvGT16 [3]): transformed
conversion as substrate (in words) (VvGT15a [4]): glucosylated primarily
conversion as substrate (in words) (VvGT15c [5]): glucosylated primarily
conversion as substrate (in words) (VvGT15b [6]): glucosylated primarily
Molecule: CC(C)=CCC/C(C)=C\CO [Nerol, (Z)-3,7-dimethyl-2,6-octadien-1-ol]

Molecule: COc1cc(/C=C/C(=O)CC(=O)/C=C/c2ccc(O)c(OC)c2)ccc1O [curcumin]
Km (CaUGT2): 43.9 µM
kcat (CaUGT2): 0.0165 s⁻¹

Molecule: C=CCc1ccc(O)c(OC)c1 [eugenol]
conversion as substrate (in words) (VvGT14a [7]): catalytic activity

Molecule: O=c1c(O)c(-c2ccc(O)c(O)c2)oc2cc(O)cc(O)c12 [quercetin]
Km (VvGT1): 31 µM
kcat (VvGT1): 0.075 s⁻¹
Km (VvGT6): 9.24 µM
kcat (VvGT6): 0.76 s⁻¹
Km (VvGT5): 5.6 µM
kcat (VvGT5): 7.16 s⁻¹
Km (UGT71G1): 57 µM
kcat (UGT71G1): 0.0175 s⁻¹

conversion as substrate (in words) (VvGT15a [4]): low activity
conversion as substrate (in words) (VvGT14a [7]): catalytic activity
Molecule: CC(C)=CCCC(C)=CCCC(C)=CCO [farnesol]

conversion as substrate (in words) (VvGT14a [7]): catalytic activity
Molecule: C=C(C)CCO [3-methyl-3-butenol]

kcat/KM of VvGT14a higher than the value for UGT85B1 from Sorghum bicolor (VvGT14a [1]): 4 fold
Km (VvGT14a [1]): 9 µM
kcat (VvGT14a [1]): 0.02 s⁻¹
kcat (VvGT16 [2]): 0.015 s⁻¹
Km (VvGT15a [8]): 63 µM
kcat (VvGT15a [8]): 0.12 s⁻¹
Km (VvGT15c [9]): 43 µM
kcat (VvGT15c [9]): 0.17 s⁻¹
Km (VvGT15b [10]): 81 µM
kcat (VvGT15b [10]): 0.10 s⁻¹
kcat (VvGT15b [10]; listed as geraniol): 0.1 s⁻¹
conversion as substrate (in words) (VvGT15a [4]): glucosylated primarily
conversion as substrate (in words) (VvGT15c [5]): glucosylated primarily
conversion as substrate (in words) (VvGT15b [6]): glucosylated primarily
conversion as substrate (in words) (VvGT14a [7]): preferred
Molecule: CC(C)=CCC/C(C)=C/CO [Geraniol, (E)-3,7-dimethyl-2,6-octadien-1-ol]

conversion as substrate (in words) (VvGT16 [3]): transformed
conversion as substrate (in words) (VvGT14a [7]): catalytic activity
Molecule: CC(C)=CCO [3-methyl-2-butenol]

Molecule: CC/C=C\CCO [cis 3-hexenol]
conversion as substrate (in words) (VvGT16 [3]): transformed
conversion as substrate (in words) (VvGT14a [7]): catalytic activity

conversion as substrate (in words) (VvGT15a [4]): glucosylated primarily
conversion as substrate (in words) (VvGT15c [5]): glucosylated primarily
conversion as substrate (in words) (VvGT15b [6]): glucosylated primarily
Molecule: CCCCCCO [hexanol]

conversion as substrate (in words) (VvGT16 [3]): transformed
conversion as substrate (in words) (VvGT15a [4]): able to use
conversion as substrate (in words) (VvGT15c [5]): able to use
conversion as substrate (in words) (VvGT14a [7]): catalytic activity
Molecule: CCC/C=C/CO [trans 2-hexenol]

Molecule: OCc1ccccc1 [benzyl alcohol]
conversion as substrate (in words) (VvGT16 [3]): highest relative activity
conversion as substrate (in words) (VvGT14a [7]): catalytic activity

conversion as substrate (in words) (VvGT15a [4]): glucosylated primarily
conversion as substrate (in words) (VvGT15c [5]): glucosylated primarily
conversion as substrate (in words) (VvGT15b [6]): glucosylated primarily
Molecule: CCCCCCCCO [octanol]

Molecule: C=CC(C)(O)CC/C=C(\C)CO (stereo not shown) [8-hydroxylinalool]
conversion as substrate (in words) (VvGT15a [4]): able to use
conversion as substrate (in words) (VvGT15c [5]): able to use
conversion as substrate (in words) (VvGT14a [7]): catalytic activity

Molecule: N#CC(O)c1ccccc1 (stereo not shown) [mandelonitrile]
conversion as substrate (in words) (VvGT15a [4]): not accepted at all
conversion as substrate (in words) (VvGT15c [5]): not accepted at all
conversion as substrate (in words) (VvGT15b [6]): not accepted at all
conversion as substrate (in words) (VvGT14a [7]): catalytic activity
conversion as substrate (in words) (VvGT14a [7]; listed as Mandelonitrile): poor substrate

B1: VvGT15a (Vitis vinifera) (protein)
chain: MPRRVVLVPCPFQGHINPMLQLGAILHSRGFSITVAHTQYNSPDPSNHPDFSFLPIPDGLSDGQNFASLLNLVLAANVNCESPLREYLAEKQEQHGDIACIIHDITMYFAEAVANHLKVPSINLVTSNVSTTIAHNAFPSLLEKGHIPLQGSTLHDPVPELHPLRFKDLPISRLGDLEVFFQILVNMYKKKFSSPIIWNTMDCLEQSSLTQRQQQLQVPFFPIGPLHKLAPPSSSSLLEEDSSCITWLDKQSPKSVIYVSWGSLACMDAKDLAEVAWGLANSNQPFLWVVRPGSVRGSQWIEQLPETFMDTVGERCHIVKWAPQKEVLGHRAVGGFWSHCGWNSTLESISEGVPMICRPYSGDQRVNTRYISHVWKVGLELESDELERVEIERAVRRLMVDGEGEEMRQRAMELKEKVEICTSEGGSSNRALKELVEYISSF
Km ([11]; other: VvGT15a): 29 ± 3.0 µM
kcat ([11]; other: VvGT15a): 0.02 s⁻¹
kcat/Km ([11]; other: VvGT15a): 900 M⁻¹ s⁻¹
Km ([12]; other: VvGT15a): 48 ± 1.7 µM
kcat ([12]; other: VvGT15a): 0.04 s⁻¹
kcat/Km ([12]; other: VvGT15a): 700 M⁻¹ s⁻¹

B2: VvGT15c (Vitis vinifera) (protein)
chain: B1 chain with Y87C, V179A, Q251H, E419D
Km ([11]; other: VvGT15c): 20 ± 1.6 µM
kcat ([11]; other: VvGT15c): 0.03 s⁻¹
kcat/Km ([11]; other: VvGT15c): 1800 M⁻¹ s⁻¹
Km ([12]; other: VvGT15c): 28 ± 0.9 µM
kcat ([12]; other: VvGT15c): 0.06 s⁻¹
kcat/Km ([12]; other: VvGT15c): 2200 M⁻¹ s⁻¹

B3: VvGT15b (Vitis vinifera) (protein)
chain: B1 chain with Y87C, V179A, Q251H, E419D
Km ([11]; other: VvGT15b): 55 ± 1.3 µM
kcat ([11]; other: VvGT15b): 0.03 s⁻¹
kcat/Km ([11]; other: VvGT15b): 600 M⁻¹ s⁻¹
Km ([12]; other: VvGT15b): 40 ± 3.7 µM
kcat ([12]; other: VvGT15b): 0.03 s⁻¹
kcat/Km ([12]; other: VvGT15b): 800 M⁻¹ s⁻¹
